Experimental findings from US20250177481A1, “SCO-spondin-derived polypeptides for enhancing synaptic transmission” (AXOLTIS PHARMA, priority 2021, published 2025) are described below.

The test system of the test is GluN2A. Briefly: GluN2A level in cortical samples of subchronic PCP mice (WES automated protein analysis). The test is classed as in vivo, Swiss CD-1 mice. To be noted: PCP + NX218 5 mg/kg D14; PCP alone 73.44; n=5. Here is the method: PCP (or saline for control group) was administered at a dose of 0.2 mg/kg by subcutaneous injections twice daily for 12 days (day 0 to day 11).
Approximately 5 minutes after the test, mice were anaesthetized with 5% isoflurane oxygen mixture. Brains were extracted immediately, then the cortex of each hemisphere were collected. Right and left cortices were transferred into clean pre-labelled microtubes and the exact weight of each sample was recorded. Finally, samples were stored at −80° C. for further analysis.
Brain samples were lysed with a defined buffer lysis consisting of CelLyticMT reagent with 1% of protease and phosphatase inhibitor cocktail (60 μL per well). Lysates were processed at +4° C. and stored at −80° C. at the end of the experiment. For each sample, the quantity of proteins was determined using the micro kit BCA (Pierce). Briefly, lysates were centrifuged and diluted at 1/20 in PBS and mixed, in equal volume, with a micro BCA. After an incubation at 60° C. for 1 hour, the quantity of proteins was measured at 562 nm with a spectrophotometer Nanovue (GE Healthcare) and compared with the standard of Bovine Serum Albumin curve (BSA, Pierce).
Automated protein analysis were performed using the WES™ system (ProteinSimple®): […]
Each protein was evaluated independently. […] 5 samples (biological replicates) per condition were analyzed.

Positions of bridges follow the written chain, without caps; N, C: chain ends. No end group written: not given here.

As for “W-S-G-W-S-S-C-S-R-S-C-G [NX218] (WSGWSSCSRSCG; disulfide 7-11 (inferred))”, the “GluN2A level in cortical samples” value was 116.46 % of control.
